Experimental data as given in article PMC9820167, “Design and Synthesis of Conformationally Flexible Scaffold as Bitopic Ligands for Potent D3-Selective Antagonists” (International Journal of Molecular Sciences, 2022).
Read-outs that look alike come from different tables or passages of the source.

Tests used:
Assay in all cases: PDSP binding screen
[1] = molecular target: T1, Adrenergic alpha1D (Homo sapiens, UniProt P25100); conditions: for inhibition at 10 µM: read-out: Ki (nM) or % inhibition at 10 µM: alpha1D
T1 sequence (P25100 1-572): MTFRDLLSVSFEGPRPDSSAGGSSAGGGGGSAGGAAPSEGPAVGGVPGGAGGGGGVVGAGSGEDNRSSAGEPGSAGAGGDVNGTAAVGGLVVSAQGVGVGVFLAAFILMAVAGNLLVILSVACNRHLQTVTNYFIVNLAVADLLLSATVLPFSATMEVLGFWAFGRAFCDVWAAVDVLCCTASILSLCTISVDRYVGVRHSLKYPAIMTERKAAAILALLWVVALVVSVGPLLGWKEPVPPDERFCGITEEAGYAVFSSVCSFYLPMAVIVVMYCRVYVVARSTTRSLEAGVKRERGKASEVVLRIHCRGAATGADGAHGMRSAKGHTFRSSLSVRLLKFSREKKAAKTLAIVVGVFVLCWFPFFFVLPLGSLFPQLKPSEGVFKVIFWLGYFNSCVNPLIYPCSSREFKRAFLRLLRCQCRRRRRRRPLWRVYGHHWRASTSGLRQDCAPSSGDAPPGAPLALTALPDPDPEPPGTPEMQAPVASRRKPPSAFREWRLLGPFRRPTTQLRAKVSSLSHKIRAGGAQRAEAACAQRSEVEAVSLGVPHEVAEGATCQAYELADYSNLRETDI

[2] = molecular target: Dopamine active transporter (DAT) (Homo sapiens, UniProt Q01959)
[3] = molecular target: BZP Rat Brain Site; conditions: HCl salts
[4] = molecular target: T2, Serotonin 5-HT5A (Homo sapiens, UniProt P47898); conditions: read-out: Ki (nM) or % inhibition at 10 µM: 5-HT5A
T2 construct: Psychoactive Drug Screening Program (PDSP)
Excerpt: (§1) Based on the results in the dopamine receptor radioligand binding assays, nine flexible-based compounds were selected for further evaluation for off-target binding with other GPCRs through the Psychoactive Drug Screening Program (PDSP) (Supplemental Table S2). […] For example, many of the N-aryl piperazine-based analogs that our group developed in the past for either the D2 or D3 receptor had high affinity for the 5-HT1A receptor [55, 56, 57, 58]. […] This mitochondrial-based protein is typically used as a target for imaging neuroinflammation. The results of the PDSP-binding assays also confirmed the data obtained in our lab for the binding of this panel of nine compounds to D2 and D3 receptors (Supplemental Table S2).

[5] = molecular target: T3, Serotonin 5-HT1E (Homo sapiens, UniProt P28566); conditions: read-out: Ki (nM) or % inhibition at 10 µM: 5-HT1E
T3 construct: Psychoactive Drug Screening Program (PDSP)
Excerpt: as §1

[6] = molecular target: T4, Serotonin transporter (SERT) (Homo sapiens, UniProt P31645); conditions: for inhibition at 10 µM: read-out: Ki (nM) or % inhibition at 10 µM: Serotonin transporter (SERT); for Ki: PDSP, HCl salts
T4 construct: Psychoactive Drug Screening Program (PDSP)
Excerpt: as §1

[7] = molecular target: T5, Opioid DOR (Homo sapiens, UniProt P41143); conditions: read-out: Ki (nM) or % inhibition at 10 µM: DOR
T5 construct: Psychoactive Drug Screening Program (PDSP)
Excerpt: as §1

[8] = molecular target: T6, Muscarinic M1 (Homo sapiens, UniProt P11229); conditions: for inhibition at 10 µM: read-out: Ki (nM) or % inhibition at 10 µM: M1
T6 sequence (P11229 1-460): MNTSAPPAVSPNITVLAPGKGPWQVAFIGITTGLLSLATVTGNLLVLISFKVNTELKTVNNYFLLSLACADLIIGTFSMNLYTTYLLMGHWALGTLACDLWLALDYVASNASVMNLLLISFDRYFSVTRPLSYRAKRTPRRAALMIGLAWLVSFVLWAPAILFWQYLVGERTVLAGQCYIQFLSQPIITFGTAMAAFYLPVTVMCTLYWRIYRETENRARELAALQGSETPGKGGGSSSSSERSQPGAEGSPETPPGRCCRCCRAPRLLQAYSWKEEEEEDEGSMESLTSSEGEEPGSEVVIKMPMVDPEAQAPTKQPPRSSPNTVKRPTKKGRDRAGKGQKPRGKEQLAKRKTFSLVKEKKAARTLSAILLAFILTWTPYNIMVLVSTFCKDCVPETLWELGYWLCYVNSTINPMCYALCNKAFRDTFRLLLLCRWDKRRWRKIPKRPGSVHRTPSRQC

[9] = molecular target: T7, Adrenergic alpha2A (Homo sapiens, UniProt P08913)
T7 sequence (P08913 1-465): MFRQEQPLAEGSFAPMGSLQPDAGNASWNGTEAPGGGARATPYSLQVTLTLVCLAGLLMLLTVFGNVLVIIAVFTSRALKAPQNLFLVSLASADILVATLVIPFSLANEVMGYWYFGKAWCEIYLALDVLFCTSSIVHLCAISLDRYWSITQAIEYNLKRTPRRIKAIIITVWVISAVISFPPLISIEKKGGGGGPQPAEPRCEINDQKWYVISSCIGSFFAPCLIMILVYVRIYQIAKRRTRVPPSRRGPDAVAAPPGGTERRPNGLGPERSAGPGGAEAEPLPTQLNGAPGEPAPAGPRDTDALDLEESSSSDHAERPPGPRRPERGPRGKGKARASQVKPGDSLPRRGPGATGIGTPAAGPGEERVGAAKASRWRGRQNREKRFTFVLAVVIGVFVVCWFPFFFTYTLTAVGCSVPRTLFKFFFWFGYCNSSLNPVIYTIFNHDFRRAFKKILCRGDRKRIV

[10] = molecular target: Serotonin 5-HT2A (Homo sapiens, UniProt P28223)
Sequence of Serotonin 5-HT2A (P28223 whole entry): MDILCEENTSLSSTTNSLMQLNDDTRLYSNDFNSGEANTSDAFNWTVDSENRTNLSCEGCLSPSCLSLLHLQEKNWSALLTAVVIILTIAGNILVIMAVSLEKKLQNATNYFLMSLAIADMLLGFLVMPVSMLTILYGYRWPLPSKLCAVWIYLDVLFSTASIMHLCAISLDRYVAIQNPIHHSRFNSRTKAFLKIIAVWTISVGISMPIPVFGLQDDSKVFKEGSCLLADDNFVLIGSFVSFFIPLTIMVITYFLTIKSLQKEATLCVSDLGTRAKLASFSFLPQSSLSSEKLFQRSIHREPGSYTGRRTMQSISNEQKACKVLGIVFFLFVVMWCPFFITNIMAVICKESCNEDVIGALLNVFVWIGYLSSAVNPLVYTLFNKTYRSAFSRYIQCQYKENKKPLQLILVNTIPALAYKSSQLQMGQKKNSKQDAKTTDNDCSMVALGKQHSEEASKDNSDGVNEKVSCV

T5 sequence (P41143 whole entry): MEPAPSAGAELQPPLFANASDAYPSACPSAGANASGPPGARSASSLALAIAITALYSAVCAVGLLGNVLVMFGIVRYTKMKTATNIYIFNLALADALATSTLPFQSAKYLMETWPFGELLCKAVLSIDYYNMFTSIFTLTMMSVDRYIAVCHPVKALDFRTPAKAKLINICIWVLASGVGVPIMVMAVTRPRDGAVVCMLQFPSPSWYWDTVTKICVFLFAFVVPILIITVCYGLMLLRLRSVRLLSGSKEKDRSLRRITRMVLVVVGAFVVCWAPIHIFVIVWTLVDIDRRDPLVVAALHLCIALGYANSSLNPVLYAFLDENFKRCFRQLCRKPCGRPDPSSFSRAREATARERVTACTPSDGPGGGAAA
Sequence of Dopamine active transporter (DAT) (Q01959 whole entry, species assumed): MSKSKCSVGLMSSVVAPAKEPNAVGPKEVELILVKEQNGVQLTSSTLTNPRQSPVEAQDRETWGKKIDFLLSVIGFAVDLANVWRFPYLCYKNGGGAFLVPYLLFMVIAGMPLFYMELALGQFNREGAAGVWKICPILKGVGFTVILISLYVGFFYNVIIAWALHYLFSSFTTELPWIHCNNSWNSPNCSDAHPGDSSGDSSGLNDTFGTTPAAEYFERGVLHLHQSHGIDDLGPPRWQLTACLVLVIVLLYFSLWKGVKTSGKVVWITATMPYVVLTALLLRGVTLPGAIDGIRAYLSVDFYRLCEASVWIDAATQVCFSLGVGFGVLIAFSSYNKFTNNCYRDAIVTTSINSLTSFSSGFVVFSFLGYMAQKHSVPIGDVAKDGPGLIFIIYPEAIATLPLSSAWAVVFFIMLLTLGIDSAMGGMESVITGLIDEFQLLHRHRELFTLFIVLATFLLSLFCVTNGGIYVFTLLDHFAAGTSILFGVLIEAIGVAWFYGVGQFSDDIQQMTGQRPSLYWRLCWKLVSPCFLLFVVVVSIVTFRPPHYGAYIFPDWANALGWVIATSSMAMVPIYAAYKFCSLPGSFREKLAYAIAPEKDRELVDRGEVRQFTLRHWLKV
T4 sequence (P31645 whole entry, species assumed): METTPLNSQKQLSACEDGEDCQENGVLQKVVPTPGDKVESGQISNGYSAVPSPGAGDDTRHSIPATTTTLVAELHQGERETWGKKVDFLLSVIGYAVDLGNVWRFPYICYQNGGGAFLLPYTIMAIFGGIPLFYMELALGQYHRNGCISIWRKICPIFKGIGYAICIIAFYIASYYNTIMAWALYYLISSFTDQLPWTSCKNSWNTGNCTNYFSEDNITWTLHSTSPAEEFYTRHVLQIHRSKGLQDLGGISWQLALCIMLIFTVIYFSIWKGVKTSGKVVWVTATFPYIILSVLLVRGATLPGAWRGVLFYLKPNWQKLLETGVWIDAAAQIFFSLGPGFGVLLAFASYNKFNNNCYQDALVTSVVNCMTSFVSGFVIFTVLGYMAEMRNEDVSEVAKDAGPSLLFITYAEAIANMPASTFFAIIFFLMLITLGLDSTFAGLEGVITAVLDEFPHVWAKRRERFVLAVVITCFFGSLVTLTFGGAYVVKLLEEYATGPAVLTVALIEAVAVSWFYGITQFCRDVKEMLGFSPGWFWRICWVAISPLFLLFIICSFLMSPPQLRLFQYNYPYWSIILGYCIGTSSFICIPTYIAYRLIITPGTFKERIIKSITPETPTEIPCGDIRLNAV
T3 sequence (P28566 whole entry): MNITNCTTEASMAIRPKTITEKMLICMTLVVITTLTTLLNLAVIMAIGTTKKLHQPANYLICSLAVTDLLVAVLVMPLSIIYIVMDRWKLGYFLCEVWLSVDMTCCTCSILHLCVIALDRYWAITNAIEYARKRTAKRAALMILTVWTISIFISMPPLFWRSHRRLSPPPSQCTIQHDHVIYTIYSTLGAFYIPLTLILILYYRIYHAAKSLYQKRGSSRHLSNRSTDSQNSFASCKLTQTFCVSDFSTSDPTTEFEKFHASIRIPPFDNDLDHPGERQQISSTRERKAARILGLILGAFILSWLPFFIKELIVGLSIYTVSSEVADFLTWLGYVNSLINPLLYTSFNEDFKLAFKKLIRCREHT
T2 sequence (P47898 whole entry): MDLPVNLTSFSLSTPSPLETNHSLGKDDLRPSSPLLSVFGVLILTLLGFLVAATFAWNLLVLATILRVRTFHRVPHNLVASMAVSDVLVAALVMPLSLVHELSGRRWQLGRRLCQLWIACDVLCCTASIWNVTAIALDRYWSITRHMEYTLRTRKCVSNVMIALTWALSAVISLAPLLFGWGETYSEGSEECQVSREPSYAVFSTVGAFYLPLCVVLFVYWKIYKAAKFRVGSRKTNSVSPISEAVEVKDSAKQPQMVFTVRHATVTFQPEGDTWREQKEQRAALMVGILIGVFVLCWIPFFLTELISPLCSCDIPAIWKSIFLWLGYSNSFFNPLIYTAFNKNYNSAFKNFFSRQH

| SMILES | Ki [1] [nM] | Ki [2] [nM] | Ki (nM) or % inhibition at 10 µM: BZP Rat Brain Site [3] | inhibition at 10 µM ([4]; PDSP, HCl salts) [%] | inhibition at 10 µM ([5]; PDSP, HCl salts) [%] | inhibition at 10 µM [6] [%] | inhibition at 10 µM [7] [%] | Ki [8] [nM] | Ki [9] [nM] | Ki [10] [nM] | inhibition at 10 µM [1] [%] | Ki [6] [nM] | inhibition at 10 µM [8] [%] | inhibition at 10 µM ([7]; PDSP, HCl salts) [%] | inhibition at 10 µM ([2]; read-out: Ki (nM) or % inhibition at 10 µM: Dopamine active transporter (DAT)) [%] | inhibition at 10 µM [4] [%] | inhibition at 10 µM [5] [%] |
| --- | --- | --- | --- | --- | --- | --- | --- | --- | --- | --- | --- | --- | --- | --- | --- | --- | --- |
| CCN(CCCNC(=O)c1cc2ccccc2[nH]1)CCNC(=O)c1cc(Br)cc(OC)c1OC [21d, N-(3-((2-(5-Bromo-2,3-dimethoxybenzamido)ethyl)(ethyl)amino)propyl)-1H-indole-2-carboxamide] | 7310 | 90 | N/A (N/A; not active means less than 50% inhibition that was obtained in primary binding assay at 10 µM of the compound) | < 50 | < 50 | < 50 | < 50 | > 10000 | 2140 | 844 | – | – | – | – | – | – | – |
| CCN(CCCNC(=O)c1ccc2ccccc2c1)CCNC(=O)c1cc(Br)cc(OC)c1OC [21a, N-(3-((2-(5-Bromo-2,3-dimethoxybenzamido)ethyl)(ethyl)amino)propyl)-2-naphthamide] | – | 89 | N/A (N/A; not active means less than 50% inhibition that was obtained in primary binding assay at 10 µM of the compound) | < 50 | < 50 | – | < 50 | – | 1970 | 1240 | < 50 | 3010 | < 50 | – | – | – | – |
| CCN(CCCNC(=O)c1ccsc1)CCNC(=O)c1cc(Br)cc(OC)c1OC [21i, N-(3-((2-(5-Bromo-2,3-dimethoxybenzamido)ethyl)(ethyl)amino)propyl)thiophen-e-3-carboxamide] | – | 289 | N/A (N/A; not active means less than 50% inhibition that was obtained in primary binding assay at 10 µM of the compound) | < 50 | < 50 | < 50 | – | – | 3340 | 1370 | < 50 | – | < 50 | < 50 | – | – | – |
| CCN(CCCNC(=O)c1cn2ccccc2n1)CCNC(=O)c1cc(Br)cc(OC)c1OC [21e, N-(3-((2-(5-Bromo-2,3-dimethoxybenzamido)ethyl)(ethyl)amino)propyl)imidazo[1,2-a]pyridine-2-carboxamide] | – | – | N/A (N/A; not active means less than 50% inhibition that was obtained in primary binding assay at 10 µM of the compound) | < 50 | < 50 | < 50 | < 50 | – | 5570 | 1330 | < 50 | – | < 50 | – | < 50 | – | – |
| CCN(CCCNC(=O)c1cc2ccccc2n1C)CCNC(=O)c1cc(Br)cc(OC)c1OC [21j, N-(3-((2-(5-Bromo-2,3-dimethoxybenzamido)ethyl)(ethyl)amino)propyl)-1-methyl-1H-indole-2-carboxamide] | – | 390 | N/A (N/A; not active means less than 50% inhibition that was obtained in primary binding assay at 10 µM of the compound) | – | < 50 | – | < 50 | – | 3110 | 3140 | < 50 | 415 | < 50 | – | – | < 50 | – |
| CCN(CCCNC(=O)c1ccc(-c2ccsc2)cc1)CCNC(=O)c1cc(Br)cc(OC)c1OC [21g, 5-Bromo-N-(2-(ethyl(3-(4-(thiophen-3-yl)benzamido)propyl)amino)ethyl)-2,3-dimethoxybenzamide] | 1410 | 100 | N/A (N/A; not active means less than 50% inhibition that was obtained in primary binding assay at 10 µM of the compound) | < 50 | < 50 | < 50 | < 50 | 3430 | 1160 | 276 | – | – | – | – | – | – | – |
| CCCN(CCCNC(=O)c1ccc(-c2cccs2)cc1)CCNC(=O)c1cc(Br)cc(OC)c1OC [20a, 5-Bromo-2,3-dimethoxy-N-(2-(propyl(3-(4-(thiophen-2-yl)benzamido)propyl)amino)ethyl)benzamide] | 2420 | 511 | N/A (N/A; not active means less than 50% inhibition that was obtained in primary binding assay at 10 µM of the compound) | < 50 | < 50 | – | < 50 | – | 740 | 617 | – | 5850 | < 50 | – | – | – | – |
| CCN(CCCNC(=O)c1ccc(-c2ccncc2)cc1)CCNC(=O)c1cc(Br)cc(OC)c1OC [21c, 5-Bromo-N-(2-(ethyl(3-(4-(pyridin-4-yl)benzamido)propyl)amino)ethyl)-2,3-dimethoxybenzamide] | – | 57 | N/A (N/A; not active means less than 50% inhibition that was obtained in primary binding assay at 10 µM of the compound) | < 50 | < 50 | < 50 | – | 3390 | 2580 | 727 | < 50 | – | – | < 50 | – | – | – |
| CCN(CCCNC(=O)c1ccc(-c2cccs2)cc1)CCNC(=O)c1cc(Br)cc(OC)c1OC [9a, 5-Bromo-N-(2-(ethyl(3-(4-(thiophen-2-yl)benzamido)propyl)amino)ethyl)-2,3-dimethoxybenzamide] | 2560 | 87 | N/A (N/A; not active means less than 50% inhibition that was obtained in primary binding assay at 10 µM of the compound) | – | – | < 50 | < 50 | 2350 | 1350 | 222 | – | – | – | – | – | < 50 | < 50 |
